According to patent US20240139205A1, “MODULATORS OF ARALAR FOR TREATING NEUROLOGICAL DISORDERS” (Universite de Lausanne, priority 2020, published 2024):

Experiments:
wild type flies = experiment: competition for food assay (total number of social events) in wild type (control) flies; format: in vivo, Drosophila
Procedure: (§1) Experiments were performed with socially experienced, 3-7 days-old male flies. Groups of eight males from the same genotype were anesthetized 24 h prior to the assay and placed in vials with food. On the day of the assay, the males were transferred without anesthesia to an empty vial and were deprived of food for 90 minutes, after which they were exposed to a food droplet and given 2 minutes to acclimate to this disturbance. The flies were then observed simultaneously for an additional 2 minutes, and the total number of social events was scored. Monitored social events were i.e. approaches, lunges, tussles, wing threat and the initiation of courtship. Of note, one interaction involving two or more flies was counted as one social event in total (Zwarts (2011), PNAS 108, 17070-17075. The behavioral assays were conducted in a behavioral chamber (25° C., 60-70% humidity) between 8 a.m. and 11 a.m. Statistics were calculated using a one-way fixed effect ANOVA model, and Kruskal Wallis test in combination with Dunn's multiple comparison test.
(§2) Example 8. GABA augmentation fully normalizes the behavioral abnormalities of Cyfip^85.1/+ flies. GABA levels were augmented in Cyfip^85.1/+ flies in three distinct ways: flies were fed either GABA, DL-2,4-diaminobutyric acid (DABA) which is a GABA-transaminase inhibitor and/or a GABA reuptake inhibitor or the anticonvulsant valproic acid (VPA) which induces GABA release (Chateauvieux (2010), Journal of biomedicine & biotechnology 2010; Coghlan (2012), Neurosci Biobehav Rev 36, 2044-2055; Reynolds (2007), Current medicinal chemistry 14, 2799-2812). All compounds were purchased from Sigma-Aldrich and were used as described before (Kanellopoulos (2012), J Neurosci. 32(38):13111-24; Zwarts (2011), PNAS 108, 17070-17075). In brief, the drugs were dissolved as per the manufacturer's instructions and used at the following concentrations: GABA at 50 μM, DABA 100 μM, Valproic acid (VPA) at 1 mM and Diazepam at 50 μM. Compounds in solution were mixed with Formula 4-24® Instant Drosophila Medium (blue food) in water. Approximately 50-60 adult flies were placed in plastic vials containing 500 μl of each solution on top of an agar matrix and allowed to feed ad libitum before behaviour analysis. Vehicle treatment consisted of solvent added to blue food alone.

Cyfip^85.1/+ flies [1] = experiment: competition for food assay (total number of social events) in Cyfip haploinsufficient flies; format: in vivo, Drosophila; conditions: for number of social events: 1 mM in the food, 1 or 2 days; for social behavior deficit (social events): Cyfip^85.1/+ flies fed 5 days, GABA 50 μM, DABA 100 μM, VPA 1 mM
Procedure: as §1, §2
Example 16. Drug screening to identify compounds that ameliorate social behavior deficits in flies with Cyfip haploinsufficiency. Control (w1118) or CYFIP (Cyfip^85.1/+) flies were treated, i.e. fed, with various compounds from the Prestwick Chemical Library® as described in Examples 8 and 15. All compounds were used at a concentration of 50 μM. The total number of social interactions was analyzed in a competition for food assay at various time-points (1, 2 or 5 days) of treatment with the compound or vehicle controls as described in Example 2.

[2] = tested on: flies with GABAergic-specific or pan-neuronal Cyfip abrogation; experiment: competition for food assay (social interactions) in flies with Cyfip abrogation (UAS-Cyfip-IR); format: in vivo, Drosophila; conditions: for social interactions: flies with GABAergic-specific Cyfip abrogation, GABA, DABA or VPA in food
Description: To control Cyfip expression, the tissue specific GAL4/UAS system was employed (Brand and Perrimon, 1993). […] Specifically, the UAS-Cyfip-RNAi transgene (UAS-Cyfip-IR) was used to abrogate Cyfip expression as described in Galy et al., 2011. To generate GAL4/UAS-Cyfip-IR flies, GAL4/GAL4 females were crossed en masse to UAS-Cyfip-IR/UAS-Cyfip-IR males. The GAL4 drivers are described in Kanellopoulos (2012), J Neurosci. 32(38):13111-24. GAL4 and UAS lines have been isogenized for 6 generations with the w1118 background before crossing. GAL4/GAL4 and UAS-Cyfip-IR/UAS-Cyfip-IR females were also crossed with w^1118 males to generate GAL4/+ and UAS-Cyfip-IR/+ progeny respectively that served as controls which should not produce the RNAi construct.
Tissue-specific GAL4 expression was achieved using the tissue-specific GAL4 promoters as follows: pan-neuronal (Elav), in cholinergic (Cha-Gla4), and GABAergic (Gad-Gal4). To avoid neurodevelopmental problems and possible lethality, the ElavGal4, was combined with the temporal TubGal80^ts system (McGuire et al., 2003; McGuire et al., 2004). At 18° C., TubGal80^ts is expressed and binds GAL4, prohibiting its binding to the UAS (i.e., no transcription of UAS-Cyfip-IR). In contrast, at 29-30° C. TubGal80^ts is degraded and will release GAL4 which in turn will bind the UAS thus activating transcription of UAS-Cyfip-IR. […] All flies/progeny for promoter-Gal4;TubGal80^ts and their controls were cultured at 18° C. and 2-days after eclosion were placed at 29-30° C. allowing UAS-Cyfip-IR transcription.
as §1
Example 8. GABA augmentation fully normalizes the behavioral abnormalities of Cyfip^85.1/+ flies. […]

[3] = tested on: mitochondrial membrane potential; conditions: literature statement; cited from earlier work
GABA release = conditions: literature statement (Amoroso 1990); cited from earlier work
GABA = GABA levels by ELISA after fractionation of fly brains; format: in vivo, Drosophila; conditions: wild type flies; oligomycin 500 μM in the food
Procedure: Finally, GABA levels were measured by ELISA (GABA ELISA Enzyme immunoassay (IBL, ID59301) following a fractionation to enrich for mitochondria or synaptic vesicles (Depner (2014), Nat Protoc 9, 2796-2808). In brief, total brain lysates, isolated mitochondria and vesicles were used for GABA derivatization. The samples were incubated with a polyclonal antibody against GABA-derivative, together with assay reagent containing the GABA-derivative (tracer). The concentration of antibody-bound tracer is inverse proportional to the GABA concentration in the sample. Peroxidase conjugate was added detect the tracer and tetramethylbenzidine (TMB) served as a peroxidase substrate. The absorbance was measured in a microplate photometer at 450 nm.
(§3) Since Aralar needs a proton for import of its substrate (i.e. GABA) into mitochondria, the equilibrium distribution of the transport substrates is set by the pH gradient across the mitochondrial membrane, which in turn is a function of fuel availability, oxidative phosphorylation and activity of the TCA cycle.

[4] = tested on: mitochondrial membrane potential; experiment: mitochondrial membrane potential by TMRE staining of fly brains; format: in vivo, Drosophila; conditions: wild type flies; oligomycin 500 μM in the food
Procedure: Briefly, for the TMRE (Enzo) and Rhodamine 123 (Sigma-Aldrich) stainings, brains were dissected in HL3 solution (mM): 110 NaCl, 5 KCl, 10 NaHCO3, 5 Hepes, 30 sucrose, 5 trehalose, and 10 MgCl2, pH 7.2. Dissected brains were stained with 10 nM TMRE or Rhodamine123 dye for 5 minutes at room temperature. Brains were quickly washed with HL3 solution, mounted on glass slides and imaged immediately with confocal microscope Leica SP8 using the same settings for all the samples.
as §3

Cyfip^85.1/+ flies [5] = experiment: Drosophila locomotor activity (DAM system); format: in vivo; conditions: 10 μM rotenone for 4 days
Procedure: The Drosophila Activity Monitoring (DAM) system from Trikinetics Inc. (Walthman, MA) was used to record the locomotor activity of flies. Male flies (1-week old), anesthetised on ice, were individually loaded into the locomotor activity-monitoring tubes, thin 5 mm diameter polycarbonate tubes containing 5% sucrose and 2% agar food and incubated for at least 4 days under 12:12 LD (light-dark) conditions at 25° C. and 50-60% humidity. Light was turned on at 7:30 am and turned off at 7:30 pm. The DAM system software counts the number of times the single fly walks through an infrared beam aimed at the middle of the tube. Data were recorded as the number of crossings (transitions) per bin of 5-30 minutes. To allow the flies to recover from anaesthesia and to get acclimatized to the new environment data from the first day was excluded from the analysis. Two independent experiments were performed and at least 40 flies for each genotype were analysed. Statistical analysis was conducted using GraphPad Prism 6.0 software. Data were evaluated by one-way analysis of variance (ANOVA) with Sidak's post hoc test and by non-parametric Kruskal-Wallis's test with Dunn's correction.

## 4-formyl-5-hydroxy-6-methylpyridin-3 yl) methyl dihydrogen phosphate [pyridoxal 5′-phosphate hydrate]
Wild type flies; wild type flies, 1 mM in the food, 2 days
  number of social events: reduced the number of social events
Cyfip^85.1/+ flies [1]; Cyfip^85.1/+ flies
  number of social events: rescues the deficits in social behavior
Cyfip^85.1/+ flies [1]; Cyfip^85.1/+ flies, listed as PLP
  number of social events: increased the number of social events to the level observed for normal wild type flies

## NCCC(N)C(=O)O (racemic) [DABA, DL-2,4-diaminobutyric acid]
[2]
  social interactions: restored the social interactions
Cyfip^85.1/+ flies [1]
  social behavior deficit (social events): ameliorated the social behavior deficit

## CC(=O)c1ccc(S(=O)(=O)NC(=O)NC2CCCCC2)cc1 [Acetohexamide, 4-Acetyl-N-[(cyclohexylamino)carbonyl]benzenesulfonamide]
[3]
  mitochondrial membrane potential: decrease the mitochondrial membrane potential
GABA release
  GABA release: indirectly increase GABA release

## O=C1CCc2ccc(OCCCCN3CCN(c4cccc(Cl)c4Cl)CC3)cc2N1 [Aripiprazole, 7-[4-[4-(2,3-dichlorophenyl)piperazin-1-yl]butoxy]-3,4-dihydro-1H-quinolin-2-one]
[3]
  mitochondrial membrane potential: decreases the mitochondrial membrane potential

## CCCNC(=O)NS(=O)(=O)c1ccc(Cl)cc1 [Chlorpropamide, (1-[p-Chlorobenzenesulfony1]-3-propylurea)]
[3]
  mitochondrial membrane potential: decrease the mitochondrial membrane potential
GABA release
  GABA release: indirectly increase GABA release

## NCCCC(=O)O [GABA, gamma-Aminobutyric acid]
Wild type flies; adult wild-type flies, high GABA diet, 5 days
  social interaction: decreased social interaction
[2]; adult pan-neuronal Cyfip abrogation, GABA feeding 5 days
  behavioral deficits (social interactions): rescued behavioral deficits
[2]
  social interactions: restored the social interactions
Cyfip^85.1/+ flies [1]
  social behavior deficit (social events): ameliorated the social behavior deficit
Cyfip^85.1/+ flies [1]; Cyfip^85.1/+ flies treated 5 days with GABA, tested post treatment
  duration of the effect post treatment (competition for food): 2 days

## Cc1ccccc1C(C(=O)NC1CCCC1)N(C(=O)Cn1cnc2ccccc21)c1cccc(F)c1 (stereo not drawn) [ML309, 2-(N-[2-(benzimidazol-1-yl)acetyl]-3-fluoroanilino)-N-cyclopentyl-2-(2-methylphenyl)acetamide]
Cyfip^85.1/+ flies [1]; Cyfip^85.1/+ flies, ML309 with the food at 50 µM, 1 or 3 days
  abnormal social feeding behavior (social events, competition for food): ameliorated the abnormal social feeding behavior

## COc1ccc(CN2CCNCC2)c(OC)c1OC.Cl.Cl [Trimetazidine dihydrochloride, 1-[(2,3,4-trimethoxyphenyl)methyl]piperazine dihydrochloride]
[3]
  mitochondrial membrane potential: balances the mitochondrial membrane potential

## CCCC(CCC)C(=O)O [VPA, valproic acid]
[2]
  social interactions: restored the social interactions
Cyfip^85.1/+ flies [1]
  social behavior deficit (social events): ameliorated the social behavior deficit

## CC[C@H]1/C=C/C=C/C[C@@H](C)[C@H](O)[C@@](C)(O)C(=O)[C@@H](C)[C@H](O)[C@@H](C)C(=O)[C@@H](C)[C@H](O)[C@@H](C)/C=C/C(=O)O[C@@H]2[C@H](C)[C@H](CC1)O[C@]1(CC[C@H](C)[C@H](C[C@@H](C)O)O1)[C@H]2C [oligomycin]
GABA
  level of available GABA in the cytosol (ELISA): decreased
[4]
  mitochondrial membrane potential (TMRE staining): increasing mitochondrial membrane potential
Wild type flies; wild type flies, oligomycin 500 μM in the food, 1 day
  competition for food: decreased

## C=C(C)[C@H]1Cc2c(ccc3c2O[C@@H]2COc4cc(OC)c(OC)cc4[C@@H]2C3=O)O1 [rotenone]
Cyfip^85.1/+ flies [5]
  hyperactivity (locomotion over 24 hours): did not restore the hyperactivity
Cyfip^85.1/+ flies [5]; listed as Rotenone
  hyperactivity (locomotion over 24 hours): does not rescue hyperactivity
Wild type flies; wild type flies, rotenone 1-10 μM in the food, 4 days
  behavior of wild type flies (competition for food): no effect
Cyfip^85.1/+ flies [1]; Cyfip^85.1/+ flies treated 4 days with rotenone, tested for 5 days post-treatment
  reversibility of the effect of treatment on social behavior: reversible
Cyfip^85.1/+ flies [1]; Cyfip^85.1/+ flies, rotenone 1-10 μM in the food, 4 days
  social deficits (competition for food): ameliorate social deficits
